Assay results as given in ChEMBL document CHEMBL1649364, “Synthesis and antifungal activity of some substituted phenothiazines and related compounds” (2011).
Converted amounts (≈) assume the structure as drawn. The source made the active and inactive calls. The calls are words filed in the database; no cut-off is given here.

Key:
[1] = tested on: Meyerozyma guilliermondii; test: Antifungal activity against Candida guilliermondii by microdilution test; assay type: functional
Aspergillus flavus = test: Antifungal activity against Aspergillus flavus by microdilution test; assay type: functional
Cryptococcus neoformans = test: Antifungal activity against Cryptococcus neoformans by microdilution test; assay type: functional
Candida albicans = test: Antifungal activity against Candida albicans by microdilution test; assay type: functional
Aspergillus terreus = test: Antifungal activity against Aspergillus terreus by microdilution test; assay type: functional
[2] = Antifungal activity against Exophiala xenobiotica by microdilution test; assay type: functional
[3] = Antifungal activity against Aspergillus fumigates by microdilution test; assay type: functional
Nakaseomyces glabratus = test: Antifungal activity against Candida glabrata by microdilution test; assay type: functional
Candida parapsilosis = test: Antifungal activity against Candida parapsilosis by microdilution test; assay type: functional; conditions: for MIC: Lodderomyces parapsilosis
Exophiala spinifera = test: Antifungal activity against Exophiala spinifera by microdilution test; assay type: functional
Aspergillus niger = test: Antifungal activity against Aspergillus niger by microdilution test; assay type: functional
Pichia kudriavzevii = test: Antifungal activity against Candida krusei by microdilution test; assay type: functional
[4] = Antifungal activity against Cladophialophora carrionii by microdilution test; assay type: functional
[5] = Antifungal activity against Exophiala oligosperma by microdilution test; assay type: functional
Aspergillus nidulans = test: Antifungal activity against Aspergillus nidulans by microdilution test; assay type: functional, organism-based

Which MIC [1] does the source give for `OC(Cn1cncn1)(Cn1cncn1)c1ccc(F)cc1F` [FLUCONAZOLE] here?
The MIC was 4 µg/mL (≈ 13.1 µM).

And the MIC (Aspergillus flavus)?
Its MIC is 16 µg/mL (≈ 52.2 µM).

What about the MIC (Cryptococcus neoformans) of the same compound?
Its MIC is 8 µg/mL (≈ 26.1 µM).

And the MIC (Candida albicans)?
Its MIC is 2 µg/mL (≈ 6.53 µM).

What about the MIC (Aspergillus terreus) of the same compound?
Its MIC is 16 µg/mL (≈ 52.2 µM).

What about the MIC [2] of the same compound?
Its MIC is 16 µg/mL (≈ 52.2 µM).

And the MIC [3]?
Its MIC is 16 µg/mL (≈ 52.2 µM).

And the MIC (Nakaseomyces glabratus)?
Its MIC is 1 µg/mL (≈ 3.27 µM).

What about the MIC (Candida parapsilosis) of the same compound?
Its MIC is 1 µg/mL (≈ 3.27 µM).

And the MIC (Exophiala spinifera)?
Its MIC is 16 µg/mL (≈ 52.2 µM).

And the MIC (Aspergillus niger)?
Its MIC is 16 µg/mL (≈ 52.2 µM).

What about the MIC (Pichia kudriavzevii) of the same compound?
Its MIC is 64 µg/mL (≈ 209 µM).

For `OCCC1CCNCC1`, which Activity [1] is on record?
The Activity was “inactive”.

And the Activity (Aspergillus flavus)?
Its Activity is “inactive”.

What about the Activity (Cryptococcus neoformans) of the same compound?
The Activity was “inactive”.

What about the Activity (Candida albicans) of the same compound?
The Activity was “inactive”.

And the Activity (Aspergillus terreus)?
Its Activity is “inactive”.

What about the Activity [2] of the same compound?
The Activity was “inactive”.

What about the Activity [3] of the same compound?
Its Activity is “inactive”.

And the Activity (Nakaseomyces glabratus)?
Its Activity is “inactive”.

What about the Activity (Candida parapsilosis) of the same compound?
The Activity was “inactive”.

What about the Activity (Exophiala spinifera) of the same compound?
The Activity was “inactive”.

And the Activity [4]?
The Activity was “inactive”.

And the Activity [5]?
Its Activity is “inactive”.

And the Activity (Aspergillus niger)?
The Activity was “inactive”.

What about the Activity (Pichia kudriavzevii) of the same compound?
Its Activity is “inactive”.

And the Activity (Aspergillus nidulans)?
Its Activity is “inactive”.

Which results are given for `CN(C/C=C/C#CC(C)(C)C)Cc1cccc2ccccc12` [TERBINAFINE]?
MIC [1]: 0.5 µg/mL (≈ 1.72 µM); MIC (Aspergillus flavus): 0.25 µg/mL (≈ 0.858 µM); MIC (Cryptococcus neoformans): 0.25 µg/mL (≈ 0.858 µM); MIC (Candida albicans): 0.5 µg/mL (≈ 1.72 µM); MIC (Aspergillus terreus): 0.06 µg/mL (≈ 0.206 µM); MIC [2]: 0.06 µg/mL (≈ 0.206 µM); MIC [3]: 0.25 µg/mL (≈ 0.858 µM); MIC (Nakaseomyces glabratus): 0.06 µg/mL (≈ 0.206 µM); MIC (Candida parapsilosis): 0.06 µg/mL (≈ 0.206 µM); MIC (Exophiala spinifera): 0.06 µg/mL (≈ 0.206 µM); MIC [4]: 0.25 µg/mL (≈ 0.858 µM); MIC [5]: 0.06 µg/mL (≈ 0.206 µM); MIC (Aspergillus niger): 0.125 µg/mL (≈ 0.429 µM); MIC (Pichia kudriavzevii): 0.06 µg/mL (≈ 0.206 µM)

Which results are given for `O=C(CCCl)N1c2ccccc2Sc2ccccc21`?
Activity [1]: inactive; Activity (Aspergillus flavus): inactive; Activity (Cryptococcus neoformans): inactive; Activity (Candida albicans): inactive; Activity (Aspergillus terreus): inactive; Activity [2]: inactive; Activity [3]: inactive; Activity (Nakaseomyces glabratus): inactive; Activity (Candida parapsilosis): inactive; Activity (Exophiala spinifera): inactive; Activity [4]: inactive; Activity [5]: inactive; Activity (Aspergillus niger): inactive; Activity (Pichia kudriavzevii): inactive; Activity (Aspergillus nidulans): inactive

Which MIC [1] does the source give for `CC(CN1c2ccccc2Sc2ccccc21)N(C)C` (stereo not given) [PROMETHAZINE] here?
Its MIC is 512 µg/mL (≈ 1800 µM).

And the MIC (Aspergillus flavus)?
The MIC was 256 µg/mL (≈ 900 µM).

What about the MIC (Cryptococcus neoformans) of the same compound?
The MIC was 256 µg/mL (≈ 900 µM).

What about the MIC (Candida albicans) of the same compound?
The MIC was > 512 µg/mL.

And the MIC (Aspergillus terreus)?
Its MIC is 256 µg/mL (≈ 900 µM).

What about the MIC [2] of the same compound?
Its MIC is 256 µg/mL (≈ 900 µM).

And the MIC [3]?
Its MIC is 256 µg/mL (≈ 900 µM).

And the MIC (Nakaseomyces glabratus)?
The MIC was > 512 µg/mL.

And the MIC (Candida parapsilosis)?
Its MIC is 512 µg/mL (≈ 1800 µM).

And the MIC (Exophiala spinifera)?
The MIC was 256 µg/mL (≈ 900 µM).

And the MIC [4]?
The MIC was 512 µg/mL (≈ 1800 µM).

And the MIC [5]?
The MIC was 256 µg/mL (≈ 900 µM).

And the MIC (Aspergillus niger)?
The MIC was 256 µg/mL (≈ 900 µM).

What about the MIC (Pichia kudriavzevii) of the same compound?
The MIC was 256 µg/mL (≈ 900 µM).

For `O=C(CCl)n1c2ccccc2c2ccccc21`, which Activity [1] is on record?
The Activity was “inactive”.

What about the Activity (Aspergillus flavus) of the same compound?
Its Activity is “inactive”.

And the Activity (Cryptococcus neoformans)?
Its Activity is “inactive”.

And the Activity (Candida albicans)?
Its Activity is “inactive”.

What about the Activity (Aspergillus terreus) of the same compound?
Its Activity is “inactive”.

What about the Activity [2] of the same compound?
Its Activity is “inactive”.

What about the Activity [3] of the same compound?
The Activity was “inactive”.

What about the Activity (Nakaseomyces glabratus) of the same compound?
Its Activity is “inactive”.

What about the Activity (Candida parapsilosis) of the same compound?
Its Activity is “inactive”.

What about the Activity (Exophiala spinifera) of the same compound?
The Activity was “inactive”.

And the Activity [4]?
The Activity was “inactive”.

And the Activity [5]?
Its Activity is “inactive”.

What about the Activity (Aspergillus niger) of the same compound?
Its Activity is “inactive”.

And the Activity (Pichia kudriavzevii)?
The Activity was “inactive”.

What about the Activity (Aspergillus nidulans) of the same compound?
The Activity was “inactive”.

What does the source list for `O=C(CCl)N1c2ccccc2Oc2ccccc21`?
Activity [1]: inactive; Activity (Aspergillus flavus): inactive; Activity (Cryptococcus neoformans): inactive; Activity (Candida albicans): inactive; Activity (Aspergillus terreus): inactive; Activity [2]: inactive; Activity [3]: inactive; Activity (Nakaseomyces glabratus): inactive; Activity (Candida parapsilosis): inactive; Activity (Exophiala spinifera): inactive; Activity [4]: inactive; Activity [5]: inactive; Activity (Aspergillus niger): inactive; Activity (Pichia kudriavzevii): inactive; Activity (Aspergillus nidulans): inactive

Which results are given for `O=C(CCl)Nc1ccccc1Sc1ccccc1`?
Activity [1]: inactive; Activity (Aspergillus flavus): inactive; Activity (Cryptococcus neoformans): inactive; Activity (Candida albicans): inactive; Activity (Aspergillus terreus): inactive; Activity [2]: inactive; Activity [3]: inactive; Activity (Nakaseomyces glabratus): inactive; Activity (Candida parapsilosis): inactive; Activity (Exophiala spinifera): inactive; Activity [4]: inactive; Activity [5]: inactive; Activity (Aspergillus niger): inactive; Activity (Pichia kudriavzevii): inactive; Activity (Aspergillus nidulans): inactive

What does the source list for `CN(C)S(=O)(=O)c1ccc2c(c1)N(C(=O)CCl)c1ccccc1S2`?
Activity [1]: inactive; Activity (Aspergillus flavus): inactive; Activity (Cryptococcus neoformans): inactive; Activity (Candida albicans): inactive; Activity (Aspergillus terreus): inactive; Activity [2]: inactive; Activity [3]: inactive; Activity (Nakaseomyces glabratus): inactive; Activity (Candida parapsilosis): inactive; Activity (Exophiala spinifera): inactive; Activity [4]: inactive; Activity [5]: inactive; Activity (Aspergillus niger): inactive; Activity (Pichia kudriavzevii): inactive; Activity (Aspergillus nidulans): inactive
